# From US20070082073A1, “Catechin Adjuvants” (UNIVERSITY OF SOUTH FLORIDA, priority 2005, published 2007)
# Legend:
# [1] = beagle dogs, cited from earlier work
# [2] = tested on: doxorubicin resistance tumors; details: animal model; cited from earlier work
# [3] = estimated/extrapolated EGCg plasma concentration after oral daily dose; type: in vivo, dogs
# Experimental: Previous reports indicate in vivo therapeutic activity at a plasma concentration of 1 to 10 μM/L (Lambert & Yang, 2003). Swezey et. al (Swezey et al., 2003) studied the absorption, tissue distribution and elimination of 4-[^3H]-epigallocatechin gallate in beagle dogs and estimated that approximately 20% of the oral dose appears in plasma after one hour and a half life of approximately 8 h. Considering an underestimation of this value to be 50 μg/ml and the molecular weight of EGCg of […] a daily dose of 250 mg/kg/day would result in a plasma concentration of approximately 100 μM/L. The doses proposed herein would result in an extrapolated value of more than […] in plasma.
# [4] = tested on: opportunistic microbial infections; assay: opportunistic microbial infections in canines treated with antimetabolites for lymphoma; type: in vivo
# From the text: There is a wide commercial need for inexpensive small molecular weight immunoenhancing drugs to enhance the immune response of individuals treated with antimetabolite anti-cancer drugs, which are immunosuppressive. We are using as the preclinical prototype pet canines treated for lymphoma, one of the most common cancers of dogs as well as humans.
smiles,measurement,setting,value
[3H]C1c2c(O)cc(O)cc2OC(c2cc(O)c(O)c(O)c2)C1OC(=O)c1cc(O)c(O)c(O)c1 (stereo not shown) [4-[^3H]-epigallocatechin gallate],oral dose that appears in plasma,[1]; after one hour,approximately 20%
same,half life,[1]; oral dose,approximately 8 h
"O=C(O[C@@H]1Cc2c(O)cc(O)cc2O[C@@H]1c1cc(O)c(O)c(O)c1)c1cc(O)c(O)c(O)c1 [EGCg, epigallocatechin gallate]",effect on doxorubicin resistance tumors,[2],revert doxorubicin resistance tumors
same,plasma concentration,[3]; daily dose of 250 mg/kg/day,approximately 100 μM/L
same,"plasma value, considered an underestimation",[3]; daily dose of 250 mg/kg/day,50 µg/mL
same,extrapolated value in plasma,"[3]; the doses proposed herein (6-60 mg/kg/day EGCg, oral)",more than 11 M/L
COc1cccc2c1C(=O)c1c(O)c3c(c(O)c1C2=O)C[C@@](O)(C(=O)CO)C[C@@H]3O[C@H]1C[C@H](N)[C@H](O)[C@H](C)O1 [adriamycin],incidence of opportunistic microbial infections,[4],increased incidence of opportunistic microbial infections
